Source: PubChem BioAssay (NCI)
Values joined by “and” are separate entries in the source; they are usually repeats but may differ in a detail not shown here. Identical values can stand only once.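 Following 48 hours of exposure in 96-well plates, responses at five concentrations were used to interpolate endpoints linearly. GI50 is the concentration that inhibits growth by half. TGI: concentration producing complete growth inhibition.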

Test system: MDA-MB-468 breast
Assay: NCI-60 cell line screen, 48 h

## COc1ccc(/C=C2\CCCC3=C2NC(C)=NC3c2ccc(OC)c(OC)c2)cc1OC (configuration not stated)
  GI50: 1290 nM
  TGI: 8180 nM

## Cc1ccc2c(c1)ncn2-c1ncnc2c1CC(C)c1ccccc1N2C (configuration not stated)
  GI50: 49.2 nM
  TGI: 19200 nM

## Fc1ccc(Nc2nccc(-c3c(-c4ccc(C(F)(F)F)cc4)nn4ncccc34)n2)cc1F
  GI50: > 20000 nM
  TGI: > 25000 nM

## O=c1oc2ccc(Cl)cc2c(=O)n1-c1ccc(I)cc1F
  GI50: 269 nM
  TGI: 870 nM

## Oc1cc(Cl)ccc1Oc1ccc(Cl)cc1Cl
  GI50: 2420 nM
  TGI: 7240 nM

## Cn1cc(-c2ccc(CNc3cc(-c4cnc5cc(OCCCN6CCCC6)ccn45)ncn3)cc2)cn1
  GI50: 1660 nM
  TGI: 3210 nM

## CCc1c[nH]c2ncnc(N3CC[C@@](N)(CNC(=O)c4ccc(F)cc4F)C3)c12
  GI50: 15000 nM
  TGI: 63700 nM

## CCCCC[C@H]1C/C=C2/C(=O)C(Cl)=C[C@@H]2C/C=C\CCCC(=O)O[C@@H](CCCCC)C/C=C2/C(=O)C(Cl)=C[C@@H]2C/C=C\CCCC(=O)O1
  GI50: 366 nM
  TGI: 862 nM

## NCc1ccc(-n2c(-c3nonc3N)nc3cnccc32)cc1
  GI50: 2750 nM
  TGI: 11800 nM

## O=C(/C=C/c1ccccc1Cl)Nc1ncc(Cc2cc(Cl)ccc2Cl)s1
  GI50: 934 nM
  TGI: 11100 nM

## CC(C)OC(=O)c1ccc2[nH]c(O)c(C(=Nc3ccc(N(C)C(=O)CN4CCN(C)CC4)cc3)c3ccccc3)c2c1
  GI50: 964 nM
  TGI: 2460 nM

## CCCCCc1c(C)[nH]c(/C=C2\N=C(c3ccc[nH]3)C=C2Oc2ccc(Cl)cc2)c1C
  GI50: 24.3 nM
  TGI: 2180 nM

## COc1ccccc1-c1c(C)nn2c(NCc3ccccn3)cc(C)nc12
  GI50: 1660 nM
  TGI: > 40400 nM

## Cn1cc(-c2ccc3c(c2)CCN3C(=O)Cc2cccc(C(F)(F)F)c2)c2c(N)ncnc21
  GI50: 3710 nM
  TGI: 29200 nM

## COC1CCN(Cc2ccc3c(NNC(=O)c4cnccn4)nc4cc(F)ccc4n23)C1 (configuration not stated)
  GI50: 916 nM
  TGI: 4270 nM

## Nc1nc(Nc2cccc(F)c2)nc2ccccc12
  GI50: 13600 nM
  TGI: 30800 nM

## C=C[C@]1(C)C=C2C(=O)[C@@]3(O)OC[C@@]4(CCCC(C)(C)C43O)C2(O)C(O)C1 (some centres not stated)
  GI50: 1290 nM
  TGI: 3160 nM

## C[C@H](CS(C)(=O)=O)Nc1ncc2cc(Oc3ccc(F)cc3F)c(=O)n(C)c2n1
  GI50: > 25000 nM
  TGI: > 25000 nM

## Cc1cc(N2CCCC2)nc(N(CCCNc2ccnc3cc(Cl)ccc23)Cc2ccc3c(c2)OCO3)n1
  GI50: 1180 nM
  TGI: 3550 nM

## C=C(C)CCC(C)N1CCC(N2CCC(C(=O)NCCc3ccccc3)CC2)CC1 (configuration not stated)
  GI50: 2200 nM
  TGI: 15800 nM

## CC1=C[C@H]2O[C@@H]3C[C@H]4OC(=O)/C=C\C=C\[C@H]([C@@H](C)O)OCC[C@@H](C)[C@H](O)C(=O)OC[C@@]2(CC1)[C@]4(C)[C@]31CO1
  GI50: 3.71 nM and 1.43 nM
  TGI: 2.28 nM
